# According to patent US20250075180A1, “METHOD FOR EXPANSION CULTURE OF GAMMA-DELTA T CELL” (IMMUNOMAX CO., LTD., priority 2022, published 2025):
# Tests used:
# γδ T cells [1] = assay: γδ T cell proliferation rate and viability in PBMC culture depending on finasteride concentration (Example 1); format: cell-based, human; details: for γδ T cell proliferation rate increase compared to control (IL-2 and ZA): PBMC from donor, 14-day culture; for proliferation rate of γδ T cells compared to control (in words): 14 days
# Description: For 100 cc of blood from a healthy donor collected by a medical professional and placed in a heparin tube, 25 ml of 1×DPBS and 25 ml of the blood were placed in four 50 ml conical tubes. 15 ml of Lymphoprep (Axis Shield, UK) was vertically dispensed into a new 50 ml conical tube carefully to avoid contacting the wall as much as possible, and the diluted blood was slowly added to the top of the 50 ml conical tube containing the Lymphoprep solution along the wall. The conical tube was placed in a centrifuge and centrifuged at 800×g (1,890 rpm) for 20 minutes at room temperature. In the separated four blood layers, the white buffy coat layer between Lymphoprep and plasma layers was collected, transferred to new 50 ml conical tubes (three or four), and centrifuged at 1,500 rpm (500×g) for 10 minutes at room temperature. The cells divided into three or four 50 ml conical tubes were resuspended in 45 ml of 1×DPBS and then collected into one 50 ml conical tube. The cells collected in one tube were centrifuged a total of two times at 1,250 rpm (350×g) for 10 minutes at room temperature. A culture medium was added to a stock of 1.0×10^7 cells to a final volume of 10 ml so that the cell concentration was 1.0×10^6 cells/ml, followed by pipetting two or three times, after which 1.0 ml of the cells was dispensed as day 0 samples to proceed with culture, and the remaining cells were dispensed at 1.0×10^7 cells into frozen vials, stored frozen in a nitrogen tank (LN2 tank), and used by thawing as necessary. The peripheral blood mononuclear cells (PBMC) isolated in 1-1 were continuously treated with 3 μM zoledronic acid and 10^3 IU/ml IL-2 as basic culture components for γδ T cells and with 0.01 nM and 10 nM finasteride as an active ingredient, followed by culture for a total of 14 days, and the activation and proliferation rates of γδ T cells were compared. The frozen peripheral blood mononuclear cells were thawed in a constant temperature water bath at 37° C. and then suspended in 9 ml of OpTmizer medium (Thermo-Fisher Scientific, USA) containing 10% heat inactivated fetal bovine serum (FBS, Gibco, USA). The number of cells was measured, followed by centrifugation at 400×g and 25° C. for 4 minutes. The cell pellets obtained by centrifugation were suspended in 5 ml of complete OpTmizer medium (10% fetal bovine serum+OpTmizer medium, cOpTmizer) and the number of cells was measured, after which the cells were diluted with cOpTmizer medium to a concentration of 1.0×10^6 cells/ml. […] After 2 days of re-induction, the aggregated cells were resuspended using a 1000P micropipette and the number of cells was measured. […] 7 days after the start of culture, the aggregated cells were resuspended using a 1000P micropipette or a 10 ml serological pipette and the number of cells was measured. […]
# γδ T cells [2] = assay: γδ T cell proliferation rate and viability in PBMC culture depending on finasteride treatment period (Example 4); format: cell-based, human
# Description: Peripheral blood mononuclear cells (PBMC) were isolated from healthy donors and were cultured for a total of 14 days by continuous treatment with 10 nM finasteride as the active ingredient for each period until day 7, day 10, and day 14 from the start date of culture, in addition to the basic culture components for γδ T cells (3 μM zoledronic acid and 10^3 IU/ml IL-2), and the activation and proliferation rates of γδ T cells were compared. The frozen peripheral blood mononuclear cells were thawed in a constant temperature water bath at 37° C. and then suspended in 9 ml of OpTmizer medium (cOpTmizer, Thermo-Fisher Scientific, USA) containing 10% fetal bovine serum (FBS). The number of cells was measured, followed by centrifugation at 400×g and 25° C. for 4 minutes. The cell pellets obtained by centrifugation were suspended in 5 ml of cOpTmizer medium (Thermo-Fisher Scientific, USA) and the number of cells was measured, after which the cells were diluted with cOpTmizer medium to a concentration of 1.0×10^6 cells/ml. A total of 1.0×10^6 cells was dispensed at 1 ml per well in a 24-well plate. To stimulate and induce differentiation of γδ T cells, 10 nM finasteride, 3 μM zoledronic acid (ZA), and 100 μl of IL-2 (10^3 IU/ml) were added, followed by culture in a CO2 incubator at 37° C. for 4 days. 4 days after the start of culture, the aggregated cells were resuspended using a 1000P micropipette, and the same amount of cOpTmizer culture medium based on the cell culture fluid in culture and 10 nM finasteride and IL-2 (10^3 IU/ml) for re-induction were further added, followed by culture in a CO2 incubator at 37° C. 5 days after the start of culture, the aggregated cells were resuspended using a 1000P micropipette and the number of cells was measured. 10 nM finasteride and IL-2 (10^3 IU/ml) were further added to the same amount of cOpTmizer culture medium based on the cell culture fluid in culture, followed by culture in a CO2 incubator at 37° C. The next day, 10 nM finasteride and IL-2 (10^3 IU/ml) were further added to half of the cOpTmizer culture medium based on the cell culture fluid in culture, followed by culture in a CO2 incubator at 37° C. 7 days after the start of culture, the aggregated cells were resuspended using a 1000P micropipette or a 10 ml serological pipette and the number of cells was measured. The cells were diluted with cOpTmizer culture medium to a concentration of 0.4×10^6 cells/ml based on the cells in culture, after which 10 nM finasteride and IL-2 (10^3 IU/ml) were added to the additional cOpTmizer culture medium, followed by culture in a CO2 incubator at 37° C. for 3 days. 10 days after the start of culture, the aggregated cells were resuspended using a 1000P micropipette or a 10 ml serological pipette and the number of cells was measured. The cells were diluted with cOpTmizer culture medium to a concentration of 0.4×10^6 cells/ml based on the cells in culture, after which 10 nM finasteride and IL-2 (10^3 IU/ml) were added to the additional cOpTmizer culture medium, followed by culture in a CO2 incubator at 37° C. On day 12 after the start of the culture, the same amount of cOpTmizer culture medium based on the cell culture fluid in culture, 10 nM finasteride, and IL-2 (10^3 IU/ml) were added, followed by culture in a CO2 incubator at 37° C. 14 days after the start of culture, the aggregated cells were resuspended using a 1000P micropipette or a 10 ml serological pipette and the number of cells was measured. […]
# [3] = 10 nM finasteride continuously until day 7, 14-day culture, FIG. 9
structure (smiles),measurement,setting,value
CC(C)(C)NC(=O)[C@H]1CC[C@H]2[C@@H]3CC[C@H]4NC(=O)C=C[C@]4(C)[C@H]3CC[C@]12C [Finasteride],γδ T cell proliferation rate increase compared to control (IL-2 and ZA),γδ T cells [1]; 0.01 nM finasteride,1.15 times increase
same,γδ T cell proliferation rate increase compared to control (IL-2 and ZA),γδ T cells [1]; 10 nM finasteride,1.35 times increase
same,proliferation rate of γδ T cells compared to control (in words),"γδ T cells [1]; female donors, low concentration of finasteride (0.01 nM), FIG. 2",increased
same,proliferation rate of γδ T cells compared to control (in words),"γδ T cells [1]; male donors, high concentration of finasteride (10 nM), FIG. 1",increased
same,γδ T cell proliferation rate increase compared to control group,γδ T cells [2]; [3],about 1.5 times
same,γδ T cell proliferation rate increase compared to group treated continuously until day 10 or 14,γδ T cells [2]; [3],at least 1.1 times
same,cell viability compared to control group,γδ T cells [2]; continuous treatment with high concentration (10 nM) of finasteride,no significant difference
same,proportion of γδ T cells,γδ T cells [2]; cultured for 7 days,about 70%
same,proportion of γδ T cells,γδ T cells [2]; cultured for 10 days,≥ 90%
